# Experimental data published in PubChem BioAssay (NCI).
#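 How tested: cells in 96-well plates exposed to compound for 48 hours at five concentrations. At the GI50, growth is halved. At the TGI there is no net growth.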
# Key:
# Assay in all cases: NCI-60 cell line screen, 48 h
# COLO 205 colon = test system: COLO 205 colon
# NCI/ADR-RES ovarian = test system: NCI/ADR-RES ovarian
# OVCAR-5 ovarian = test system: OVCAR-5 ovarian
# OVCAR-8 ovarian = test system: OVCAR-8 ovarian
# RXF 393 renal = test system: RXF 393 renal
# MOLT-4 leukemia = test system: MOLT-4 leukemia
# OVCAR-3 ovarian = test system: OVCAR-3 ovarian
# UACC-257 melanoma = test system: UACC-257 melanoma
# HOP-92 NSCLC = test system: HOP-92 NSCLC
# NCI-H23 lung = test system: NCI-H23 lung
# HOP-62 NSCLC = test system: HOP-62 NSCLC
# ACHN renal = test system: ACHN renal
# T-47D breast = test system: T-47D breast
# HCT-15 colon = test system: HCT-15 colon
# SNB-75 CNS = test system: SNB-75 CNS
# SR leukemia = test system: SR leukemia
# A498 renal = test system: A498 renal
# SF-268 CNS = test system: SF-268 CNS
# NCI-H226 lung = test system: NCI-H226 lung
# OVCAR-4 ovarian = test system: OVCAR-4 ovarian
# HCC-2998 colon = test system: HCC-2998 colon
# LOX IMVI melanoma = test system: LOX IMVI melanoma
# A549 NSCLC = test system: A549 NSCLC
# SK-MEL-2 melanoma = test system: SK-MEL-2 melanoma
# MDA-MB-468 breast = test system: MDA-MB-468 breast
# MCF7 breast = test system: MCF7 breast
# MDA-MB-231 breast = test system: MDA-MB-231 breast
# TK-10 renal = test system: TK-10 renal
# HS 578T breast = test system: HS 578T breast
# SF-539 CNS = test system: SF-539 CNS
structure (smiles),measurement,setting,value
COC(=O)CNC(=O)COc1c(OC)c(OC)cc2oc(-c3cccc(C(=O)Nc4ccc(Cl)cc4)c3)cc(=O)c12,GI50,COLO 205 colon,4.19 µM
same,TGI,COLO 205 colon,17.8 µM
same,GI50,NCI/ADR-RES ovarian,9.62 µM
same,TGI,NCI/ADR-RES ovarian,73.4 µM
same,GI50,OVCAR-5 ovarian,7.2 µM
same,TGI,OVCAR-5 ovarian,40.1 µM
same,GI50,OVCAR-8 ovarian,3.64 µM
same,TGI,OVCAR-8 ovarian,11.8 µM
same,GI50,RXF 393 renal,3.54 µM
same,TGI,RXF 393 renal,14.9 µM
same,GI50,MOLT-4 leukemia,> 100 µM
same,TGI,MOLT-4 leukemia,> 100 µM
same,GI50,OVCAR-3 ovarian,12.4 µM
same,TGI,OVCAR-3 ovarian,37.5 µM
same,GI50,UACC-257 melanoma,7.35 µM
same,TGI,UACC-257 melanoma,24.9 µM
same,GI50,HOP-92 NSCLC,4.04 µM
same,TGI,HOP-92 NSCLC,25.9 µM
same,GI50,NCI-H23 lung,7.19 µM
same,TGI,NCI-H23 lung,20 µM
same,GI50,HOP-62 NSCLC,3.56 µM
same,TGI,HOP-62 NSCLC,11.5 µM
same,GI50,ACHN renal,5.84 µM
same,TGI,ACHN renal,18.7 µM
same,GI50,T-47D breast,8.16 µM
same,TGI,T-47D breast,31.1 µM
same,GI50,HCT-15 colon,14.8 µM
same,TGI,HCT-15 colon,> 100 µM
same,GI50,SNB-75 CNS,11.9 µM
same,TGI,SNB-75 CNS,37.4 µM
same,GI50,SR leukemia,9.98 µM
same,TGI,SR leukemia,> 100 µM
same,GI50,A498 renal,16.3 µM
same,TGI,A498 renal,34.5 µM
same,GI50,SF-268 CNS,15.1 µM
same,TGI,SF-268 CNS,42.9 µM
same,GI50,NCI-H226 lung,4.01 µM
same,TGI,NCI-H226 lung,27.6 µM
same,GI50,OVCAR-4 ovarian,2950 nM
same,TGI,OVCAR-4 ovarian,10.8 µM
same,GI50,HCC-2998 colon,15.4 µM
same,TGI,HCC-2998 colon,70.8 µM
same,GI50,LOX IMVI melanoma,5.02 µM
same,TGI,LOX IMVI melanoma,19.5 µM
same,GI50,A549 NSCLC,7.25 µM
same,TGI,A549 NSCLC,20.6 µM
same,GI50,SK-MEL-2 melanoma,10.1 µM
same,TGI,SK-MEL-2 melanoma,25 µM
same,GI50,MDA-MB-468 breast,27.2 µM
same,TGI,MDA-MB-468 breast,> 100 µM
same,GI50,MCF7 breast,6.05 µM
same,TGI,MCF7 breast,23.9 µM
same,GI50,MDA-MB-231 breast,3.57 µM
same,TGI,MDA-MB-231 breast,13 µM
same,GI50,TK-10 renal,16.1 µM
same,TGI,TK-10 renal,34.6 µM
same,GI50,HS 578T breast,4.28 µM
same,TGI,HS 578T breast,28.5 µM
same,GI50,SF-539 CNS,8.6 µM
